Test results as given in ChEMBL document CHEMBL1143443, “Discovery of (naphthalen-4-yl)(phenyl)methanones and N-methyl-N-phenylnaphthalen-1-amines as new apoptosis inducers using a cell- and caspase-based HTS assay” (Bioorg Med Chem Lett, 2008).

What was measured:
T47D [1] = test: Induction of apoptosis in human T47D cells assessed as caspase activation by HTS assay; format: functional, cell-based
HCT-116 [2] = test: Induction of apoptosis in human HCT116 cells assessed as caspase activation by HTS assay; format: functional, cell-based
SNU-398 [3] = test: Induction of apoptosis in human SNU398 cells assessed as caspase activation by HTS assay; format: functional, cell-based
HCT-116 [4] = test: Cell cycle arrest in human HCT116 cells assessed as increase in subG1 phase population at 100 nM after 48 hrs by flow cytometry; format: functional
HCT-116 [5] = test: Cytotoxicity against human HCT116 cells; format: functional
T47D [6] = test: Cytotoxicity against human T47D cells; format: functional
SNU-398 [7] = test: Cytotoxicity against human SNU398 cells; format: functional
HCT-116 [8] = test: Cell cycle arrest in human HCT116 cells assessed as increase in G2/M phase population at 100 nM after 24 hrs by flow cytometry; format: functional
HCT-116 [9] = test: Cell cycle arrest in human HCT116 cells assessed as increase in subG1 phase population at 100 nM after 24 hrs by flow cytometry; format: functional

Row | SMILES | EC50 (T47D [1]) | EC50 (HCT-116 [2]) | EC50 (SNU-398 [3]) | Activity (HCT-116 [4]) | GI50 (HCT-116 [5]) | GI50 (T47D [6]) | GI50 (SNU-398 [7]) | Activity (HCT-116 [8]) | Activity (HCT-116 [9])
1 | CN(C)c1ccc(C(O)c2ccc(N(C)C)c3ccccc23)cc1 (stereo not given) | 380 nM | 490 nM | 520 nM |  |  |  |  |  | 
2 | CN(C)c1ccc(C(=O)c2ccc(N(C)C)c3ccccc23)cc1 | 37 nM | 49 nM | 44 nM | 53% | 68 nM | 34 nM | 27 nM | 12% | 4%
3 | COc1ccc(C(=O)c2ccc(N(C)C)cc2)c2ccccc12 | 810 nM | 1200 nM | 980 nM |  |  |  |  |  | 
4 | COc1ccc(C(O)c2ccc(N(C)C)c3ccccc23)cc1 (stereo not given) | 140 nM | 260 nM | 170 nM |  | 490 nM | 230 nM | 170 nM |  | 
5 | COc1ccc(N(C)c2ccc(N(C)C)c3ccccc23)cc1 | 510 nM | 610 nM | 720 nM |  | 320 nM | 260 nM | 150 nM |  | 
6 | COc1cccc(N(C)c2ccc(N(C)C)c3ccccc23)c1 | 4400 nM | 4600 nM | 4700 nM |  |  |  |  |  | 
7 | COc1ccc(N(C)c2ccc([N+](=O)[O-])c3ccccc23)cc1 | 240 nM | 280 nM | 330 nM |  |  |  |  |  | 
8 | COc1cc(OC)cc(C(=O)c2ccc(N(C)C)c3ccccc23)c1 | 1300 nM | 1900 nM | 1500 nM |  |  |  |  |  | 
9 | COc1ccc(C(=O)c2ccc(N(C)C)c3ccccc23)cc1OC | 470 nM | 650 nM | 560 nM |  |  |  |  |  | 
10 | COc1cc(C(=O)c2ccc(N(C)C)c3ccccc23)cc(OC)c1OC | 420 nM | 1200 nM | 570 nM |  |  |  |  |  | 
11 | COc1ccc(N(C)c2ccc(N)c3ccccc23)cc1 | 12000 nM | 11000 nM | 5300 nM |  |  |  |  |  | 
12 | COc1ccc(C(=O)c2ccc(N(C)C)c3ccccc23)cc1 | 72 nM | 86 nM | 74 nM |  | 100 nM | 39 nM | 27 nM |  | 
13 | COc1cccc(C(=O)c2ccc(N(C)C)c3ccccc23)c1 | 2600 nM | 5100 nM | 3500 nM |  |  |  |  |  | 
14 | COc1ccc(C(=O)c2ccc([N+](=O)[O-])cc2)c2ccccc12 | > 10000 nM | > 10000 nM | > 10000 nM |  |  |  |  |  | 
15 | COc1ccc(C(OC)c2ccc(N(C)C)c3ccccc23)cc1 (stereo not given) | 590 nM | 620 nM | 760 nM |  |  |  |  |  | 
